From article PMC8153904 (ACS Omega, 2021)
Entries after “also recorded” stand apart in the source; their conditions may differ.

Assays:
[1] = Cytotoxicity assay; format: cell-based, hamster; conditions: hamster, BHK-21 cells, CC50, BHK-21 cells, 24 h, MTT
[2] = test system: BHK-21 cells; experiment: Cytotoxicity assay; format: cell-based, hamster; conditions: for cytotoxic effect over the tested concentrations: concentrations of 1 up to 100 μM, mixtures of four stereoisomers
[3] = test system: CHIKV-NanoLuc; experiment: Antiviral activity assay, CHIKV-NanoLuc at low MOI in BHK-21 cells; format: cell-based, Chikungunya virus; conditions: for EC50: Chikungunya virus, BHK-21, 16 h; for viral infection at 100 μM / concentration at which the inhibitory effect appeared: mixtures of four stereoisomers; for concentration at which the inhibitory effect appeared: tested at 1 up to 100 μM

Compound | CC50 at 24 h [1] [µM] | concentration at which cytotoxicity appeared [2] | EC50 [3] [µM] | other results
Cc1cc(C)cc([C@@H]2C[C@H]2C(=O)NC(C(N)=O)c2ccc(C)c(C)c2)c1 (stereo partly drawn) [D27] | < 0.1 | 100 nM |  | cytotoxic effect over the tested concentrations [2]: toxic at all concentrations
Cc1cc(C)cc([C@@H]2C[C@H]2C(=O)NC(C(N)=O)c2ccc(C)c(C(F)(F)F)c2)c1 (stereo partly drawn) [D119] | > 100 |  | 32 | 
Cc1cc(F)cc([C@@H]2C[C@H]2C(=O)NC(C(N)=O)c2ccc(C)c(C(F)(F)F)c2)c1 (stereo partly drawn) [D127] | > 100 | more than 100 μM | 29.6 | 
Cc1cc(C)cc([C@@H]2C[C@H]2C(=O)NC(C(=O)NCc2ccccc2)c2ccc(C)c(C)c2)c1 (stereo partly drawn) [D160] | > 100 |  | 10.5 | viral infection at 100 μM ([3]; BHK-21 cells): almost completely inhibited; concentration at which the inhibitory effect appeared ([3]; BHK-21 cells): 10 µM; cytotoxic effect over the tested concentrations [2]: no cytotoxic effect
Cc1cc(C)cc([C@@H]2C[C@H]2C(=O)NC(C(=O)NC(C)(C)C)c2ccc(C)c(C)c2)c1 (stereo partly drawn) [D161] | > 100 |  | 13.9 | viral infection at 100 μM ([3]; BHK-21 cells): almost completely inhibited; concentration at which the inhibitory effect appeared ([3]; BHK-21 cells): 10 µM; cytotoxicity effect at 100 μM ([2]; 100 μM, mixture of four stereoisomers): moderate cytotoxicity effect; also recorded: moderate cytotoxic effect
Cc1cc(C)cc([C@@H]2C[C@H]2C(=O)NC(C(=O)NC2CC2)c2ccc(C)c(C)c2)c1 (stereo partly drawn) [D163] |  | more than 10 μM |  | antiviral activity at the maximum nontoxic concentration ([3]; BHK-21 cells, CHIKV-NanoLuc): no antiviral activity
Cc1cc(C)cc([C@@H]2C[C@H]2C(=O)NC(C(=O)NC2CCCC2)c2ccc(C)c(C)c2)c1 (stereo partly drawn) [D164] | > 100 |  | 50.5 | 
COc1ccc(CNC(=O)C(NC(=O)[C@@H]2C[C@H]2c2cc(C)cc(F)c2)c2ccc(C)c(C(F)(F)F)c2)c(OC)c1 (stereo partly drawn) [D166] | > 100 |  |  | antiviral (anti-CHIKV) activity, in words ([3]; BHK-21 cells, CHIKV-NanoLuc, low MOI): complete loss of the activity
